Laboratory results reported in ChEMBL document CHEMBL6127065, “Design and Synthesis of c-Met and HDAC Dual Inhibitors for the Treatment of Breast Cancer” (ACS Med Chem Lett, 2024).
Activity calls are given as the source filed them. The calls are words filed in the database; no cut-off is given here.

Assays:
MDA-MB-231 [1] = assay: Antiproliferative activity against human MDA-MB-231 cells assessed as reduction in cell growth incubated for 72 hrs by MTT assay; conditions: MDA-MB-231, 72 h
[2] = target: T1, Hepatocyte growth factor receptor (Homo sapiens, UniProt P08581); assay: Inhibition of c-Met in human MDA-MB-231 cells assessed as inhibition of ERK phosphorylation incubated for 48 hrs by western blot analysis; format: cell-based; conditions: dose 1-25 µM
MDA-MB-231 [3] = assay: Induction of apoptosis in human MDA-MB-231 cells assessed as necrotic cells at 25 uM incubated for 48 hrs by AnnexinV-FITC/PI staining based flow cytometry (reference value: 1.79 to 2.53%); format: functional
MDA-MB-231 [4] = assay: Induction of cell cycle arrest in human MDA-MB-231 cells assessed as accumulation of cells at G2/M phase at 25 uM incubated for 48 hrs by PI staining based flow cytometry (reference value: 29.42 to 32.08%); format: functional
MDA-MB-231 [5] = assay: Anti-migration activity in human MDA-MB-231 cells assessed as inhibition of cell invasion incubated for 72 hrs by Transwell assay; format: functional, cell-based; conditions: dose 1-25 µM
MDA-MB-231 [6] = assay: Induction of apoptosis in human MDA-MB-231 cells assessed as upregulation of cleaved caspase 8 level at 1 to 25 uM incubated for 48 hrs by western blot analysis; format: functional, cell-based; conditions: dose 1-25 µM
[7] = target: T1, Hepatocyte growth factor receptor; assay: Inhibition of c-Met (unknown origin) using Poly(Glu:Tyr)(4:1) and ATP as substrate incubated for 45 mins by Kinase-Glo Max reagent based luminescence analysis
MDA-MB-231 [8] = assay: Induction of cell cycle arrest in human MDA-MB-231 cells assessed as accumulation of cells at G0/G1 phase at 1 uM incubated for 48 hrs by PI staining based flow cytometry (reference value: 55.36 to 55.82%); format: functional
[9] = target: T1, Hepatocyte growth factor receptor; assay: Inhibition of c-Met in human MDA-MB-231 cells assessed as inhibition of Akt phosphorylation at […] residue incubated for 48 hrs by western blot analysis; format: cell-based; conditions: dose 1-25 µM
MDA-MB-231 [10] = assay: Induction of apoptosis in human MDA-MB-231 cells assessed as upregulation of cleaved caspase 3 level at 1 to 25 uM incubated for 48 hrs by western blot analysis; format: functional, cell-based; conditions: dose 1-25 µM
MDA-MB-231 [11] = assay: Induction of apoptosis in human MDA-MB-231 cells assessed as viable cells at 25 uM incubated for 48 hrs by AnnexinV-FITC/PI staining based flow cytometry (reference value: 91.22 to 92.84%); format: functional; conditions: read-out: Activity
MDA-MB-231 [12] = assay: Induction of apoptosis in human MDA-MB-231 cells assessed as viable cells at 2.5 uM incubated for 48 hrs by AnnexinV-FITC/PI staining based flow cytometry (reference value: 91.22 to 92.84%); format: functional; conditions: read-out: Activity

T1 sequence (P08581 whole entry): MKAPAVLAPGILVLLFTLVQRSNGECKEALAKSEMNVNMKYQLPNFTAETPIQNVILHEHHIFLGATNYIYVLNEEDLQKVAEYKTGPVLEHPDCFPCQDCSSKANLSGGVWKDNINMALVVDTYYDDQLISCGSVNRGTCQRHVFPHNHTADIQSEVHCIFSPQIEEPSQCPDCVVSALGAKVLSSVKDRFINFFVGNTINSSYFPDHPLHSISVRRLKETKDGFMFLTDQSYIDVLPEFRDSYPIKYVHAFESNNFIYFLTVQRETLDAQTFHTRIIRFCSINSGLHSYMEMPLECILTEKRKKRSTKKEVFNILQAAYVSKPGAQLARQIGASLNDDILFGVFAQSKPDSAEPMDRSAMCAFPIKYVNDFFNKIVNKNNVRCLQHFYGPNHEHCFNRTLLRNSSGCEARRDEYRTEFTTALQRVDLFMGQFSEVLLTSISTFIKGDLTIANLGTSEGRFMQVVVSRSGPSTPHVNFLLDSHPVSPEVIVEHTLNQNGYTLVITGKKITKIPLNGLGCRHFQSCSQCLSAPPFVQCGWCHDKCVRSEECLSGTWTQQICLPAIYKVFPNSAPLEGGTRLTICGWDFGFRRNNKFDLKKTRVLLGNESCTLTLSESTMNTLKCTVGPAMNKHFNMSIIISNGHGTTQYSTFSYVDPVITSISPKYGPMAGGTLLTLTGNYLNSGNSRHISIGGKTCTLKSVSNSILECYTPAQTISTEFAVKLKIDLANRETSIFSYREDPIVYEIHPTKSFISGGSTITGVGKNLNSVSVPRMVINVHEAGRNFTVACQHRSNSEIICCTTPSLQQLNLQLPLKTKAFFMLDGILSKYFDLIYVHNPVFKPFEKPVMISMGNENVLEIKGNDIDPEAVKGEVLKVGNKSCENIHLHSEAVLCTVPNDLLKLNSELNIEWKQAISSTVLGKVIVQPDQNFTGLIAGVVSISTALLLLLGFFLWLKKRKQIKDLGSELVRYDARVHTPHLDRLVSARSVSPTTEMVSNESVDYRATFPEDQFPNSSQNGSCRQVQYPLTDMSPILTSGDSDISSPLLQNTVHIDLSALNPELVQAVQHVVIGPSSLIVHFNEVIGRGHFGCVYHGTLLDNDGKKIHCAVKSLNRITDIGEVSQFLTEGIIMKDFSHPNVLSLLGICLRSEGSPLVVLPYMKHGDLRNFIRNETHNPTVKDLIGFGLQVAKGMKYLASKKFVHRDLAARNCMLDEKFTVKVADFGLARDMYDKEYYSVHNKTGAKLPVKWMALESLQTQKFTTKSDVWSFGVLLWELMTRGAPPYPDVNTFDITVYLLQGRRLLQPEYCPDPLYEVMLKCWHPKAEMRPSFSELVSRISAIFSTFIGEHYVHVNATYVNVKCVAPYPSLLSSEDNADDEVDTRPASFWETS

IC50 (MDA-MB-231 [1]): 3.57 µM
inhibition [2]: Dose-Dependent Effect
IC50 [7]: 28.9 nM
inhibition [9]: Dose-Dependent Effect
Structure (SMILES): CC(c1ccc2ncccc2c1)n1nnc2ncc(N3CCN(Cc4ccc(/C=C/C(=O)Nc5ccccc5N)cc4)CC3)nc21 (configuration not stated)
Activity (MDA-MB-231 [3]): 1.42%
Activity (MDA-MB-231 [4]): 10.57%
Activity (MDA-MB-231 [5]): Dose-Dependent Effect
Activity (MDA-MB-231 [6]): Active
Activity (MDA-MB-231 [8]): 65.34%
Activity (MDA-MB-231 [10]): Active
viability at 25 µM (MDA-MB-231 [11]): 82.8%
viability at 2.5 µM (MDA-MB-231 [12]): 84.3%
